SMILES strings stand for the structures. pIC50: −log10 of the molar value.

This passage reports IC50 results from patent US20240124427A1, “HYDROXYHETEROCYCLOALKANE-CARBAMOYL DERIVATIVES” (Idorsia Pharmaceuticals Ltd, priority 2021, published 2024).

Sequence of human Gal-3 (hGal-3) (P17931 whole entry): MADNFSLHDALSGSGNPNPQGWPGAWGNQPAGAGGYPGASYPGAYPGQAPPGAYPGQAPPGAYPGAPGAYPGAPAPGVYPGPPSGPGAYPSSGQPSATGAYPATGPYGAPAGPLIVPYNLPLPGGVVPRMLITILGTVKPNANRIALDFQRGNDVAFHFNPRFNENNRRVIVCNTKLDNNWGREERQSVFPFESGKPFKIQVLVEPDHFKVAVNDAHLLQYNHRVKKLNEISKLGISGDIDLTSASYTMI

This experiment has as its target human Gal-3 (hGal-3) (Homo sapiens (Human), UniProt P17931). Description: Competitive binding assay: biotinylated hGal-3 binding to microplate-adsorbed asialofetuin (ASF). To be noted: Activity on hGal-3; mean values of several measurements; mixture of diastereomers measured where not separated. As for the experimental part: The inhibitory activity of compounds is determined in competitive binding assays. This spectrophotometric assay measures the binding of biotinylated human Gal-3 (hGal-3) or human Gal-1 (hGal-1), respectively, to a microplate-adsorbed glycoprotein, asialofetuin (ASF) (Proc Natl Acad Sci USA. 2013 Mar 26;110(13):5052-7.). Alternatively, and preferably, a human Gal-1 version in which all six cysteines are substituted by serines may be used.
Briefly, compounds are serially diluted in DMSO (working dilutions).
Plates are incubated for 3 hours at 4° C., then washed with cold assay buffer (3×50 uL), incubated for 1 hour with 25 μL/well of a streptavidin-peroxidase solution (diluted in assay buffer to 80 ng/mL) at 4° C., followed by further washing steps with assay buffer (3×50 uL). Finally, 25 μL/well of ABTS substrate is added.
The calculated IC50 values may fluctuate depending on the daily assay performance. Fluctuations of this kind are known to those skilled in the art. IC50 values from several measurements are given as mean values.
Turning to `CO[C@@H]1[C@@H](n2cc(-c3cc(F)c(F)c(F)c3)nn2)[C@@H](O)[C@@H](CO)O[C@H]1C(=O)N(c1cc(C)cc(Br)c1)[C@@H]1CNCC[C@H]1O` [Example 115, (2R,3R,4S,5R,6R)-N-(3-bromo-5-methylphenyl)-5-hydroxy-6-(hydroxymethyl)-N-((3R,4R)-4-hydroxypiperidin-3-yl)-3-methoxy-4-(4-(3,4,5-trifluorophenyl)-1H-1,2,3-triazol-1-yl)tetrahydro-2H-pyran-2-carboxamide], the pIC50 (in general, the negative decadic logarithm of the IC50, by convention in mol/L) was 6.71.

In the case of `CO[C@@H]1[C@@H](n2cc(-c3cc(F)c(C)c(F)c3)nn2)[C@@H](O)[C@@H](CO)O[C@H]1C(=O)N(c1cc(Br)cc(C#N)c1)[C@@H]1COC[C@H]1O` [Example 46, (2R,3R,4S,5R,6R)-N-(3-bromo-5-cyanophenyl)-4-(4-(3,5-difluoro-4-methylphenyl)-1H-1,2,3-triazol-1-yl)-5-hydroxy-6-(hydroxymethyl)-N-((3R,4S)-4-hydroxytetrahydrofuran-3-yl)-3-methoxytetrahydro-2H-pyran-2-carboxamide], the pIC50 is 7.09.

Consider `CO[C@@H]1[C@@H](n2cc(-c3cc(F)c(F)c(F)c3)nn2)[C@@H](O)[C@@H](CO)O[C@H]1C(=O)N(c1cc(Br)cc(C#N)c1)[C@@H]1CNC[C@H]1O` [Example 67, (2R,3R,4S,5R,6R)-N-(3-bromo-5-cyanophenyl)-5-hydroxy-6-(hydroxymethyl)-N-((3R,4R)-4-hydroxypyrrolidin-3-yl)-3-methoxy-4-(4-(3,4,5-trifluorophenyl)-1H-1,2,3-triazol-1-yl)tetrahydro-2H-pyran-2-carboxamide], for which the pIC50 is 6.89.

Regarding `COc1cc(C#N)cc(N(C(=O)[C@@H]2O[C@H](CO)[C@H](O)[C@H](n3cc(-c4cc(F)c(F)c(F)c4)nn3)[C@H]2OC)[C@H]2COC[C@@H]2O)c1` [Example 9, (2R,3R,4S,5R,6R)-N-(3-cyano-5-methoxyphenyl)-5-hydroxy-6-(hydroxymethyl)-N-((3S,4R)-4-hydroxytetrahydrofuran-3-yl)-3-methoxy-4-(4-(3,4,5-trifluorophenyl)-1H-1,2,3-triazol-1-yl)tetrahydro-2H-pyran-2-carboxamide], the pIC50 was 7.00.

For `CO[C@@H]1[C@@H](n2cc(-c3cc(F)c(F)c(F)c3)nn2)[C@@H](O)[C@@H](CO)O[C@H]1C(=O)N(c1cc(Br)cc(C#N)c1)[C@H]1CNC[C@@H]1O` [Example 60, (2R,3R,4S,5R,6R)-N-(3-bromo-5-cyanophenyl)-5-hydroxy-6-(hydroxymethyl)-N-((3S,4S)-4-hydroxypyrrolidin-3-yl)-3-methoxy-4-(4-(3,4,5-trifluorophenyl)-1H-1,2,3-triazol-1-yl)tetrahydro-2H-pyran-2-carboxamide], the pIC50 is 7.29.

For `CO[C@@H]1[C@@H](n2cc(-c3cc(F)c(F)c(F)c3)nn2)[C@@H](O)[C@@H](CO)O[C@H]1C(=O)N(c1cc(C)cc(Br)c1)[C@H]1CN(C(C)=O)C[C@@H]1O` [Example 72, (2R,3R,4S,5R,6R)-N-((3S,4S)-1-acetyl-4-hydroxypyrrolidin-3-yl)-N-(3-bromo-5-methylphenyl)-5-hydroxy-6-(hydroxymethyl)-3-methoxy-4-(4-(3,4,5-trifluorophenyl)-1H-1,2,3-triazol-1-yl)tetrahydro-2H-pyran-2-carboxamide], the pIC50 was 7.59.

As to `CO[C@@H]1[C@@H](n2cc(-c3cc(F)c(F)c(F)c3)nn2)[C@@H](O)[C@@H](CO)O[C@H]1C(=O)N(c1cc(Cl)cc(C#N)c1)[C@H]1COC[C@@H]1O` [Example 5, (2R,3R,4S,5R,6R)-N-(3-chloro-5-cyanophenyl)-5-hydroxy-6-(hydroxymethyl)-N-((3S,4R)-4-hydroxytetrahydrofuran-3-yl)-3-methoxy-4-(4-(3,4,5-trifluorophenyl)-1H-1,2,3-triazol-1-yl)tetrahydro-2H-pyran-2-carboxamide], the negative logarithm of the IC50 (pIC50) is 7.16.

For the compound `CO[C@@H]1[C@@H](n2cc(-c3cc(F)c(F)c(F)c3)nn2)[C@@H](O)[C@@H](CO)O[C@H]1C(=O)N(c1cccc(Br)c1)[C@H]1COC[C@@H]1O` [Example 2, (2R,3R,4S,5R,6R)-N-(3-bromophenyl)-5-hydroxy-6-(hydroxymethyl)-N-((3S,4R)-4-hydroxytetrahydrofuran-3-yl)-3-methoxy-4-(4-(3,4,5-trifluorophenyl)-1H-1,2,3-triazol-1-yl)tetrahydro-2H-pyran-2-carboxamide], the pIC50 was 7.10.

With `CO[C@@H]1[C@@H](n2cc(-c3cc(F)c(F)c(F)c3)nn2)[C@@H](O)[C@@H](CO)O[C@H]1C(=O)N(c1cc(C)cc(Br)c1)[C@H]1CN(C)C[C@@H]1O` [Example 96, (2R,3R,4S,5R,6R)-N-(3-bromo-5-methylphenyl)-5-hydroxy-N-((3S,4S)-4-hydroxy-1-methylpyrrolidin-3-yl)-6-(hydroxymethyl)-3-methoxy-4-(4-(3,4,5-trifluorophenyl)-1H-1,2,3-triazol-1-yl)tetrahydro-2H-pyran-2-carboxamide], the pIC50 is 7.29.

Turning to `CO[C@@H]1[C@@H](n2cc(-c3cc(F)c(C)c(F)c3)nn2)[C@@H](O)[C@@H](CO)O[C@H]1C(=O)N(c1cc(C)cc(Br)c1)[C@H]1COC[C@@H]1O` [Example 18, (2R,3R,4S,5R,6R)-N-(3-bromo-5-methylphenyl)-4-(4-(3,5-difluoro-4-methylphenyl)-1H-1,2,3-triazol-1-yl)-5-hydroxy-6-(hydroxymethyl)-N-((3S,4R)-4-hydroxytetrahydrofuran-3-yl)-3-methoxytetrahydro-2H-pyran-2-carboxamide], the pIC50 was 7.16.

As to `CO[C@@H]1[C@@H](n2cc(-c3ccc(C)c(F)c3F)nn2)[C@@H](O)[C@@H](CO)O[C@H]1C(=O)N(c1cc(Br)cc(C#N)c1)[C@H]1COC[C@@H]1O` [Example 20, (2R,3R,4S,5R,6R)-N-(3-bromo-5-cyanophenyl)-4-(4-(2,3-difluoro-4-methylphenyl)-1H-1,2,3-triazol-1-yl)-5-hydroxy-6-(hydroxymethyl)-N-((3S,4R)-4-hydroxytetrahydrofuran-3-yl)-3-methoxytetrahydro-2H-pyran-2-carboxamide], the pIC50 was 7.51.

In the case of `CO[C@@H]1[C@@H](n2cc(-c3ccc(Br)c(F)c3F)nn2)[C@@H](O)[C@@H](CO)O[C@H]1C(=O)N(c1cc(Cl)cc(Cl)c1)[C@H]1CN(C(C)=O)C[C@@H]1O` [Example 73, (2R,3R,4S,5R,6R)-N-((3S,4S)-1-acetyl-4-hydroxypyrrolidin-3-yl)-4-(4-(4-bromo-2,3-difluorophenyl)-1H-1,2,3-triazol-1-yl)-N-(3,5-dichlorophenyl)-5-hydroxy-6-(hydroxymethyl)-3-methoxytetrahydro-2H-pyran-2-carboxamide], the pIC50 is 7.64.

Consider `CO[C@@H]1[C@@H](n2cc(-c3cc(F)c(C)c(F)c3)nn2)[C@@H](O)[C@@H](CO)O[C@H]1C(=O)N(c1cc(Cl)cc(Cl)c1)[C@H]1COC[C@@H]1O` [Example 15, (2R,3R,4S,5R,6R)-N-(3,5-dichlorophenyl)-4-(4-(3,5-difluoro-4-methylphenyl)-1H-1,2,3-triazol-1-yl)-5-hydroxy-6-(hydroxymethyl)-N-((3S,4R)-4-hydroxytetrahydrofuran-3-yl)-3-methoxytetrahydro-2H-pyran-2-carboxamide], for which the negative logarithm of the IC50 (pIC50) is 7.42.

In the case of `CO[C@@H]1[C@@H](n2cc(-c3ccc(Br)c(F)c3F)nn2)[C@@H](O)[C@@H](CO)O[C@H]1C(=O)N(c1cc(Cl)cc(Cl)c1)[C@H]1CN(C=O)C[C@@H]1O` [Example 91, (2R,3R,4S,5R,6R)-4-(4-(4-bromo-2,3-difluorophenyl)-1H-1,2,3-triazol-1-yl)-N-(3,5-dichlorophenyl)-N-((3S,4S)-1-formyl-4-hydroxypyrrolidin-3-yl)-5-hydroxy-6-(hydroxymethyl)-3-methoxytetrahydro-2H-pyran-2-carboxamide], the pIC50 was 7.70.

On to `CO[C@@H]1[C@@H](n2cc(-c3cc(F)c(F)c(F)c3)nn2)[C@@H](O)[C@@H](CO)O[C@H]1C(=O)N(c1cc(C)cc(Br)c1)[C@H]1CN(C=O)C[C@@H]1O` [Example 90, (2R,3R,4S,5R,6R)-N-(3-bromo-5-methylphenyl)-N-((3S,4S)-1-formyl-4-hydroxypyrrolidin-3-yl)-5-hydroxy-6-(hydroxymethyl)-3-methoxy-4-(4-(3,4,5-trifluorophenyl)-1H-1,2,3-triazol-1-yl)tetrahydro-2H-pyran-2-carboxamide], for which the pIC50 was 7.70.

In the case of `CO[C@@H]1[C@@H](n2cc(-c3cc(F)c(F)c(F)c3)nn2)[C@@H](O)[C@@H](CO)O[C@H]1C(=O)N(c1cccc(Cl)c1)[C@@H]1COC[C@H]1O` [Example 30, (2R,3R,4S,5R,6R)-N-(3-chlorophenyl)-5-hydroxy-6-(hydroxymethyl)-N-((3R,4S)-4-hydroxytetrahydrofuran-3-yl)-3-methoxy-4-(4-(3,4,5-trifluorophenyl)-1H-1,2,3-triazol-1-yl)tetrahydro-2H-pyran-2-carboxamide], the pIC50 is 6.63.

Consider `CO[C@@H]1[C@@H](n2cc(-c3cc(F)c(C)c(F)c3)nn2)[C@@H](O)[C@@H](CO)O[C@H]1C(=O)N(c1cc(Br)cc(Br)c1)[C@H]1COC[C@@H]1O` [Example 16, (2R,3R,4S,5R,6R)-N-(3,5-dibromophenyl)-4-(4-(3,5-difluoro-4-methylphenyl)-1H-1,2,3-triazol-1-yl)-5-hydroxy-6-(hydroxymethyl)-N-((3S,4R)-4-hydroxytetrahydrofuran-3-yl)-3-methoxytetrahydro-2H-pyran-2-carboxamide], for which the pIC50 is 7.21.
